# ± gives the expanded uncertainty stated by the source.
# Settings: Crystal; DTA
structure (smiles),measurement,value
CC[C@H]1OC(=O)[C@H](C)[C@@H](O[C@H]2C[C@@](C)(OC)[C@@H](O)[C@H](C)O2)[C@H](C)[C@@H](O[C@@H]2O[C@H](C)C[C@H](N(C)C)[C@H]2O)[C@](C)(O)C[C@@H](C)C(=O)[C@H](C)[C@@H](O)[C@]1(C)O.O.O [erythromycin A dihydrate],Normal melting temperature,137.7 ± 0.5 °C
